The text below walks through data of patent US20220401564A1 (DANA-FARBER CANCER INSTITUTE, INC., priority 2019, published 2022).

What all share (assay type): biochemical
For experiment [1], the target named is T1, HDAC7 (Homo sapiens, UniProt Q8WUI4).
T1 construct: purchased Reaction Biology
T1 sequence (Q8WUI4 1-952): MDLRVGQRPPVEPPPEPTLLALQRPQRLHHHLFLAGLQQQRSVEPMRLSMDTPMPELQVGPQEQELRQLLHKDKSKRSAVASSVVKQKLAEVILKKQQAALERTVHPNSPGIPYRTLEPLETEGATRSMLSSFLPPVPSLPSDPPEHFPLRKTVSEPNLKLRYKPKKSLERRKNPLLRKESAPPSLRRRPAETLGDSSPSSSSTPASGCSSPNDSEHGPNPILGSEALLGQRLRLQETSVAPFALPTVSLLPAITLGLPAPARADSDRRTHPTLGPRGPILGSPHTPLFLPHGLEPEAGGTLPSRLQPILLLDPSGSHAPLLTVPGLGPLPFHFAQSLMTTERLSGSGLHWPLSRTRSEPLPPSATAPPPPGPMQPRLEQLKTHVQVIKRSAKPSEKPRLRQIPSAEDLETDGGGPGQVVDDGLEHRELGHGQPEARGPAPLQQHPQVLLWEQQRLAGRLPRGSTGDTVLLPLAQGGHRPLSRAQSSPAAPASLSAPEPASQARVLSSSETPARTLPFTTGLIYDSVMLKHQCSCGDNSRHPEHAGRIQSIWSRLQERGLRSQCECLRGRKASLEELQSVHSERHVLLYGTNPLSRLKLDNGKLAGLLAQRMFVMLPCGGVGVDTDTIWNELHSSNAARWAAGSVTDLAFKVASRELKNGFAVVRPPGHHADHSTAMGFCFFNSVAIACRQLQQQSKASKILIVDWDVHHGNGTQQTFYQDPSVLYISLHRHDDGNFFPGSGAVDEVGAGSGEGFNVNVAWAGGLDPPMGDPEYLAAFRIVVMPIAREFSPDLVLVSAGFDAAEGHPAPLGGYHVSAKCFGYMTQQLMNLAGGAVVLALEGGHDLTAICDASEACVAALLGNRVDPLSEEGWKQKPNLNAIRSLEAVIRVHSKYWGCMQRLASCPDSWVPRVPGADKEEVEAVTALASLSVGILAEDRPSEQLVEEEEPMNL
Kind of experiment: HDAC enzymatic assay (Reaction Biology), Class 2A substrate. Particulars: 10-dose response curve; read-out: Compound IC50 (M), HDAC7. The procedure:
(§1) Compounds 2 and 9 were tested in an enzymatic assay from Reaction Biology® against HDAC isoforms.
(§2) Base Reaction buffer: 50 mM Tris-HCl, pH8.0, 137 mM NaCl, 2.7 mM KCl, and 1 mM MgCl2. Add fresh: 1 mg/ml BSA, 1% DMSO
(§3) Class 2A Substrate (HDAC4, HDAC5, HDAC7, and HDAC9): Boc-Lys(trifluoroacetyl)-AMC
(§4) 1. Delivered 2X enzyme in wells of reaction plate except in the control wells and added buffer to control wells. 2. Delivered compounds in 100% DMSO into the enzyme mixture by Acoustic technology (Echo550; nanoliter range). Spin down and pre-incubation. 3. Delivered 2X Substrate Mixture (Fluorogenic HDAC Substrate and co-factor if applicable) in all reaction wells to initiate the reaction. Spin and shake. 4. Incubated for 30 min for Class 2A, 1 h for HDAC1, 2, 3, and 6, and 2 h for the rest of HDAC isoforms and SIRTs at 30° C. with seal.
(§5) 5. Added Developer with Trichostatin A (or Nicotinamide for SIRTs) to stop the reaction and to generate fluorescent color. 6. The fluorescence that was generated was detected with excitation (Ex) at […] and emission (Em) at 460 nM by the EnVision Multilabel Plate Reader (PerkinElmer®, Santa Clara, Calif., USA).
(§6) IC50 values were derived from a 10-dose response curve. As shown in Tables 1-2, the addition of a linker and CRBN targeting group altered the isoform selectivity of the SAHA-based degrader compounds.

Experiment [2] addresses T2, HDAC9 (Homo sapiens, UniProt Q9UKV0).
T2 construct: purchased Reaction Biology
The experiment is described as above. Conditions: 10-dose response curve; read-out: Compound IC50 (M), HDAC9. How it is done: as §1, §2, §3, §4, §5, §6

Experiment [3] has as its target T3, HDAC4 (Homo sapiens, UniProt P56524).
T3 construct: purchased Reaction Biology
The experiment is described as above. Conditions: 10-dose response curve; read-out: Compound IC50 (M), HDAC4. How it is done: as §1, §2, §3, §4, §5, §6

The target in experiment [4] is T4, HDAC5 (Homo sapiens, UniProt Q9UQL6).
T4 construct: purchased Reaction Biology
Described as above. Particulars: 10-dose response curve; read-out: Compound IC50 (M), HDAC5. The procedure:
as §1, §2, §3, §4, §5, §6

Experiment [5] addresses T5, HDAC1 (Homo sapiens, UniProt Q13547).
T5 construct: purchased Reaction Biology
Briefly: HDAC enzymatic assay (Reaction Biology), fluorogenic substrate. How it is done: as §1, §2
(§7) Fluorogenic HDAC General Substrate (HDAC1, HDAC2, HDAC3, HDAC6, HDAC10, and HDAC11): 50 μM, Arg-His-Lys-Lys(Ac)-AMC
as §4, §5, §6

The target of experiment [6] is T6, HDAC2 (Homo sapiens, UniProt Q92769).
T6 construct: purchased Reaction Biology
The experiment is described as above. How it is done: as §1, §2, §7, §4, §5, §6

Experiment [7] deals with T7, HDAC8 (Homo sapiens, UniProt Q9BY41).
T7 sequence (Q9BY41 1-377): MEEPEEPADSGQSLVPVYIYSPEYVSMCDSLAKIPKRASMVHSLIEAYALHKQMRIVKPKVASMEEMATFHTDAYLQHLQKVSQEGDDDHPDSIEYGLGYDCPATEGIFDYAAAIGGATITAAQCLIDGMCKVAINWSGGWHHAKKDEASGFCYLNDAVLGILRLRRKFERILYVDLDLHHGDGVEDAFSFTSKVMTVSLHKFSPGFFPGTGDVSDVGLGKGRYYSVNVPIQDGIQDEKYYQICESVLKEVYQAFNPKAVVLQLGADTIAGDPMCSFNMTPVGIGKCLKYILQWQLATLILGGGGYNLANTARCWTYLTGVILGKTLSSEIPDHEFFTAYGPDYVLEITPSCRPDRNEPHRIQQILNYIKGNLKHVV
Briefly: HDAC enzymatic assay (Reaction Biology), HDAC8 substrate. On the set-up: purchased Reaction Biology. How it is done: as §1, §2
(HDAC8 only substrate: 50 μM, Arg-His-Lys(Ac)-Lys(Ac))-AMC
as §4, §5, §6

T5 sequence (Q13547 whole entry): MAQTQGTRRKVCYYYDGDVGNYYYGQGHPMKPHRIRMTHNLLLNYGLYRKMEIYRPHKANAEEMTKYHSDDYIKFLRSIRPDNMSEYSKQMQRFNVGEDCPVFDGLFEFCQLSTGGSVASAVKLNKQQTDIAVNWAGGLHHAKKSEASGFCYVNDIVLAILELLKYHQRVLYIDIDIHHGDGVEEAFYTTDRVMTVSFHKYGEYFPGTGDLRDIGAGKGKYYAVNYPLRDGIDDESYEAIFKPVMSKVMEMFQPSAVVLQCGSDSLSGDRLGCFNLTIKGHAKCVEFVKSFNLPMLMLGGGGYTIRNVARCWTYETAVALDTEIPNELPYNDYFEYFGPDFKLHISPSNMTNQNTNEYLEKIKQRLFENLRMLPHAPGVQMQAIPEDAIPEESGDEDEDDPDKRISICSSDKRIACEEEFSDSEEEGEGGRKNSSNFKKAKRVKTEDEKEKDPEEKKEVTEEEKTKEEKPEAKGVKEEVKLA
T6 sequence (Q92769 whole entry): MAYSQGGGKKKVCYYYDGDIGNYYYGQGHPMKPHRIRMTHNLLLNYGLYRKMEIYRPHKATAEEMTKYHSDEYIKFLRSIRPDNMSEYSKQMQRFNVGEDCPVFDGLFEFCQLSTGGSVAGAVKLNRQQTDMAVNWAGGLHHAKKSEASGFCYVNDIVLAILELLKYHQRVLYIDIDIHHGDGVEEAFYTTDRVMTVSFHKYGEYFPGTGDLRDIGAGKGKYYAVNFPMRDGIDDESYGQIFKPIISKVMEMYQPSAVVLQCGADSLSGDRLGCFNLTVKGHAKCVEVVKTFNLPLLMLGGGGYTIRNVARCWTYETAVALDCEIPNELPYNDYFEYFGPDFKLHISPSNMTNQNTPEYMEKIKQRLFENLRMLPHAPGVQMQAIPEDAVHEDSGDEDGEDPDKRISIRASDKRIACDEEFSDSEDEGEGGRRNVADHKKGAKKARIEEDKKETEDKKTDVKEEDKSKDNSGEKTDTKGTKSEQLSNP
T3 sequence (P56524 whole entry): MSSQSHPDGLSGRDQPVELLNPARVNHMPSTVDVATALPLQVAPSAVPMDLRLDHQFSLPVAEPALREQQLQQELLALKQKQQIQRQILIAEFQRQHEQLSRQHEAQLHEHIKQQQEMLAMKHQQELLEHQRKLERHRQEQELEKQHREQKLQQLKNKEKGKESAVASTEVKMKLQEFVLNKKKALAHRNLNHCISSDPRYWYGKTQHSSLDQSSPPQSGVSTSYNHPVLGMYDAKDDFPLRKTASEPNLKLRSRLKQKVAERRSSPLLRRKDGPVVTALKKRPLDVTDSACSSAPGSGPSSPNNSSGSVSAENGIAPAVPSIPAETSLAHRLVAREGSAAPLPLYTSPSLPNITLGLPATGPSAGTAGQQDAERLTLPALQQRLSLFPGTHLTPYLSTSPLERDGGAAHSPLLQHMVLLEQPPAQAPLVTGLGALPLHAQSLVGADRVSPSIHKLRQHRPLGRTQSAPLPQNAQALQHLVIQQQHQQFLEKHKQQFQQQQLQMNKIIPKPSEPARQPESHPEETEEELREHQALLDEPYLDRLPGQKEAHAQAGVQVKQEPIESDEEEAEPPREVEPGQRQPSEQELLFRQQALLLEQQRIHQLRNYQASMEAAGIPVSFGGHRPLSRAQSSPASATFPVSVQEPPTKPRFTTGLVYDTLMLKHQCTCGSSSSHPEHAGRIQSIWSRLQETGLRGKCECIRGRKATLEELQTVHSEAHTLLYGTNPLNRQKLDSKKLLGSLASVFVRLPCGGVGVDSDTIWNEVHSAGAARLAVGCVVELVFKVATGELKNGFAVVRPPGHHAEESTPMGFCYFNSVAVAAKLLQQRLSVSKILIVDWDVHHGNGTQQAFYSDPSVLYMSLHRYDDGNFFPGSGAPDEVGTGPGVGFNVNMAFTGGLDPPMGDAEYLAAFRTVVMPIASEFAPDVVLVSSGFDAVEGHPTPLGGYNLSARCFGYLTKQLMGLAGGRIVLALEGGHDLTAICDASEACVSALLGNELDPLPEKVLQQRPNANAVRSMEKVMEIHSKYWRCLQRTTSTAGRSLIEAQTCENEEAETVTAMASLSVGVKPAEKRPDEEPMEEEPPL
T2 sequence (Q9UKV0 whole entry): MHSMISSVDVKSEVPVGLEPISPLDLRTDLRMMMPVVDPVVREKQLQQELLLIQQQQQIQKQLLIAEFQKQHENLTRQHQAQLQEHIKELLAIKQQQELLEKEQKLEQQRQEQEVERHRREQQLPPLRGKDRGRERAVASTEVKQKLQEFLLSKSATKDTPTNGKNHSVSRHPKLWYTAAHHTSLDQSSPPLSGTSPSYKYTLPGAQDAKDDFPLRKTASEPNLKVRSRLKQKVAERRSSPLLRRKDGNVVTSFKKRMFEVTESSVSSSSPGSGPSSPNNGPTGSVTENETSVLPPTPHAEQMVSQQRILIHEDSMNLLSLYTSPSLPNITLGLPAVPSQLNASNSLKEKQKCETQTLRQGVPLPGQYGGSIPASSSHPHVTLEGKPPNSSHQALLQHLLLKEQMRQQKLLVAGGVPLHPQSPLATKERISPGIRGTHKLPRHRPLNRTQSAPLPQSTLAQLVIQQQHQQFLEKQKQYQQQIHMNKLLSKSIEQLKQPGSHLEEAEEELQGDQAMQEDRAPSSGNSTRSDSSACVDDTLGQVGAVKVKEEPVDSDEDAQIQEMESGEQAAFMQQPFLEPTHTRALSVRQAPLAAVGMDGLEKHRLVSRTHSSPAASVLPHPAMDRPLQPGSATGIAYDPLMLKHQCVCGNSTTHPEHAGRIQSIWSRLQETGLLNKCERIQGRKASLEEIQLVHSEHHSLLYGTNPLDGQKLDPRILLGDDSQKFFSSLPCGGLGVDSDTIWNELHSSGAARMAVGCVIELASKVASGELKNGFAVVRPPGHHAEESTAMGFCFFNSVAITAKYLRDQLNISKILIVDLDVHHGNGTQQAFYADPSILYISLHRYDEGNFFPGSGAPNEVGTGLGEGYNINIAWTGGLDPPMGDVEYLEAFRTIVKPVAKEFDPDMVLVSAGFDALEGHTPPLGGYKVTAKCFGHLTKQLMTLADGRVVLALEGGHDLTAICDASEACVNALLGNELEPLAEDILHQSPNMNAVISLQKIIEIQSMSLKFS
T4 sequence (Q9UQL6 whole entry): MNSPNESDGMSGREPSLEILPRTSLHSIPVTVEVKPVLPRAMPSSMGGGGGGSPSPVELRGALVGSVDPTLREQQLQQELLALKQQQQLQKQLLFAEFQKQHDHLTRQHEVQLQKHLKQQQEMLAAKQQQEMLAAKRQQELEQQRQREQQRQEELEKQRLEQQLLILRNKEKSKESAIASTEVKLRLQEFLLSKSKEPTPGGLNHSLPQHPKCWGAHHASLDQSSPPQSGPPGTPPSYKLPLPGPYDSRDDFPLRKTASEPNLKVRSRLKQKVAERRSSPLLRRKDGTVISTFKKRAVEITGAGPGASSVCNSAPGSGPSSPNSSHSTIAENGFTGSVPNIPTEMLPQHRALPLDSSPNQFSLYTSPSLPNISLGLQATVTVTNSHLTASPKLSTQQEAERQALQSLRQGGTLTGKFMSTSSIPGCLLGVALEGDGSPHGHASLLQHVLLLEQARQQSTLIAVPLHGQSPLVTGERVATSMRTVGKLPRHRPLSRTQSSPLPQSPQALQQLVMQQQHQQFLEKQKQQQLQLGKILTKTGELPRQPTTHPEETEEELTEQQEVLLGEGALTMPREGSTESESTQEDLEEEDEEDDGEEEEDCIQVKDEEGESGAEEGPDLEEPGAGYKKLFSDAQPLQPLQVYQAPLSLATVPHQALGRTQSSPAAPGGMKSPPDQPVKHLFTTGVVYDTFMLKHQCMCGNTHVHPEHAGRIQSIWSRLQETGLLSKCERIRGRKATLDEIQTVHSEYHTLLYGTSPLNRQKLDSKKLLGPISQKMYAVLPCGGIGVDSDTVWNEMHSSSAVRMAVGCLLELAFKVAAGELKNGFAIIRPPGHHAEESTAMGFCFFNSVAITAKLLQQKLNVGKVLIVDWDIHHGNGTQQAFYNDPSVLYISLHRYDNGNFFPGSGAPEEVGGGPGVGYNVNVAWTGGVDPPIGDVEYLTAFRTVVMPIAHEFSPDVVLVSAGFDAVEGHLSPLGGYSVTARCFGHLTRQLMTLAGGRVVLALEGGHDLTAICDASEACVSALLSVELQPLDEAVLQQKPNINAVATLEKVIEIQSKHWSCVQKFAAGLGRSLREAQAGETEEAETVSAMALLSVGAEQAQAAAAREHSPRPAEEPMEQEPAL

As for `Cc1ncsc1-c1ccc([C@H](C)NC(=O)[C@@H]2C[C@@H](O)CN2C(=O)[C@@H](NC(=O)CCOCCOCCN(CCc2c[nH]c3ccccc23)Cc2ccc(/C=C/C(=O)NO)cc2)C(C)(C)C)cc1` [Compound 2, (2S,4R)-1-((S)-14-(tert-butyl)-3-(4-((E)-3-(hydroxyamino)-3-oxoprop-1-en-1-yl)benzyl)-1-(1H-indol-3-yl)-12-oxo-6,9-dioxa-3,13-diazapentadecan-15-oyl)-4-hydroxy-N—((S)-1-(4-(4-methylthiazol-5-yl)phenyl)ethyl)pyrrolidine-2-carboxamide], the IC50 (as a rule, the concentration that gives 50% inhibition) in experiment [1] is 1.71e-05 M; in experiment [2] it was greater than 2e-05 M; in experiment [3], 1.31e-05 M; in experiment [4], 2.69e-06 M; in experiment [5] (10-dose response curve, read-out: Compound IC50 (M), HDAC1) it was 4.81e-07 M; in experiment [6] (10-dose response curve, read-out: Compound IC50 (M), HDAC2) it was 1.03e-06 M. Moreover, the IC50 in experiment [7] (10-dose response curve, read-out: Compound IC50 (M), HDAC8) is 1.16e-06 M. In experiment [5], the “inhibition of HDAC1 deacetylase activity in vitro (in words)” value is on record as “Moderate inhibition”. In addition, in experiment [6], the “inhibition of HDAC2 deacetylase activity in vitro (in words)” value was “Moderate inhibition”. Besides, the “inhibition of HDAC8 deacetylase activity in vitro (in words)” value in experiment [7] is listed as “Moderate inhibition”.
